Some results are limits rather than exact numbers.

This passage reports IC50 results from patent publication US20220177459A1, “AROMATIC AMINE COMPOUND AND USE THEREOF IN PREPARATION OF AR AND BRD4 DUAL INHIBITORS AND REGULATORS” (HINOVA PHARMACEUTICALS INC., priority 2019, published 2022).

Assay [1] concerns LNCaP/AR cells. The assay can be described thus: Inhibition of proliferation of prostate cancer cells LNCaP/AR (CCK-8). To be noted: 144 h, 6 days culture, CCK-8, OD 450 nm, read-out: IC50 (μM), inhibitory activity on prostate cancer cell LNCap/AR. The class given is cell-based. The protocol: 1. Biological determination of the inhibitory effect on the proliferation of prostate cancer cells LNCaP/AR
Cell culture medium: RIPM1640 media, 10% FBS, 1% Pen Strep;
(§1) 1) LNCaP/AR cells were subcultured in cell culture medium, and the cells in good growth condition were seeded in a 96-well plate, with 80 μL per well (i.e. 1000 cells per well), and cultured overnight in a 37° C., 5% CO2 cell incubator.
2) The drug was prepared with dimethylsulfoxide (DMSO) as a 10 mM stock solution.
(§2) Immediately before use, the stock solution was diluted 3 times with DMSO, and then diluted as a 3-fold gradient to obtain 9 concentration gradients. Then, the compound of each concentration was diluted 200 times with the culture media (to ensure that the DMSO concentration in the culture system was 0.1%), and two multiple holes were set for each concentration. 20 μL of the diluted compound was added to the cell culture well (with a final concentration of 10 μM, 3.3 μM, 1.1 μM . . . ), and then shook gently to mix. In addition, three negative control wells with only cells and three blank control wells with only culture medium were included (6 wells being each added with DMSO diluted 200 times with 20 μL culture medium).
(§3) 1) After culturing for 6 days, 10 μL of CCK-8 was added to each well and continued culturing for 1 hour in a 37° C., 5% CO2 cell incubator.
(§4) 2) The absorbance (OD value) was measured at 450 nm using a multifunctional microplate reader.
(§5) 3) The data were analyzed by the Dose-response-inhibition equation in the software GraphPad Prism5, and the IC50 value was obtained.

In assay [2] the test system is 22RV1 cells. The experiment in a line: Inhibition of proliferation of other prostate cancer cells: 22RV1. To be noted: Homo sapiens, same method as LNCaP/AR. The class given is cell-based. The protocol: as §1, §2, §3, §4, §5
(§6) 2. Biological determination of the inhibitory effect on the proliferation of other prostate cancer cells
(§7) The inhibitory activity of the compound according to the present invention on other drug-resistant prostate cancer cells was measured by the same method as described above, in which VCaP and 22RV1 cells were commercially available.

In assay [3] the test system is VCaP cells. The experiment in a line: Inhibition of proliferation of other prostate cancer cells: VCaP. Format: cell-based. To be noted: Homo sapiens, same method as LNCaP/AR. As for the experimental part:
as §1, §2, §3, §4, §5, §6, §7

The target of assay [4] is T1, androgen receptor (AR) (Homo sapiens, UniProt P10275).
T1 construct: host or cells: HEK293
T1 sequence (P10275 1-920): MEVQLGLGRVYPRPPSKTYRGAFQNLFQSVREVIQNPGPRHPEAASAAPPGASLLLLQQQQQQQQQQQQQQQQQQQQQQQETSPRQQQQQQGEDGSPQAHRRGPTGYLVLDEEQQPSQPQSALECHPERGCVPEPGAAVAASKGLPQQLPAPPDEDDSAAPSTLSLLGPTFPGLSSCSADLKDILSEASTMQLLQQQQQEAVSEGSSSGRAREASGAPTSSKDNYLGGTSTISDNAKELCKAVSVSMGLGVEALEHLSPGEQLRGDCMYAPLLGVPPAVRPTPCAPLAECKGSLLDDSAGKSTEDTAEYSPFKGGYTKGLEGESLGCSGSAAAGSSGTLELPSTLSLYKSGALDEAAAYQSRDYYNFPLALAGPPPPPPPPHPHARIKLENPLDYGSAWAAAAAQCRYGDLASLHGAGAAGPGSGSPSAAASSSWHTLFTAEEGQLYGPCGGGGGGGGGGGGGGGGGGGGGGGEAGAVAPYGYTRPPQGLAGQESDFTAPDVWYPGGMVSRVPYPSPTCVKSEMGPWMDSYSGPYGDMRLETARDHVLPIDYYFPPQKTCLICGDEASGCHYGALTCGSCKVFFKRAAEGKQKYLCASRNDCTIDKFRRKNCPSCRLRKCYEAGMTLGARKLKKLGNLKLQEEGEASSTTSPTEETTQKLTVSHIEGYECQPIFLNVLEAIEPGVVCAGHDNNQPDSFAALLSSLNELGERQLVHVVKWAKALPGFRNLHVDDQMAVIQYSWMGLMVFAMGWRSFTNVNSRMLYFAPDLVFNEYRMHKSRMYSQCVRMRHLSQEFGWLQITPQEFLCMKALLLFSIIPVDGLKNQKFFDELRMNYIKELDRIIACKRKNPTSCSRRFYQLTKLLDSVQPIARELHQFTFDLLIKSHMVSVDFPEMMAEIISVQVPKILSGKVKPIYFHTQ
The experiment in a line: Inhibitory activity on the function of androgen receptor (AR), luciferase reporter in transfected cells. Format: cell-based. To be noted: transfected with AR and pGL4.36, testosterone 2 nM, Steady-Glo. The protocol: Experimental Example 2 the Inhibitory Activity of the Compound According to the Present Invention on the Function of Androgen Receptor (AR)
Androgen receptor clone (Origene, Cat. No. RC235415)
pGL4.36 vector (Promega, Cat. No. E1360)
1) The cell suspension was diluted with the culture medium for seeding cells to a concentration of 4.0×10^5 cells/ml, for plating and adding transfection reagents.
2) The diluted cell suspension was inoculated into a cell culture plate, with 100 μL per well, and the plate was placed in a cell incubator and cultured overnight.
3) The transfection reagent was prepared as 10 μL/well, and added into the cell culture plate after 15 min at room temperature, then the plate was placed in a cell incubator and cultured overnight.
4) The compound was diluted by a 3-fold gradient with TECAN sampler, to obtain 8 concentration gradients, and the final DMSO concentration was 0.25%. The diluted compound was cultured in a 37° C. incubator for 30 min.
5) 250 nL of testosterone at a final concentration of 2 nM was added to the control well with an […] sampler, placed in a cell incubator, and cultured overnight.
6) Steady-Glo was added at 100 μL/well to the cell culture plate, and then the plate was left at room temperature for 15 min, followed by reading on Envision.
The data were analyzed according to the formula % Effect=(Sample value−LC)/(HC−LC)*100, using XL-fit software (provided by Business Solutions Ltd., version number XL fit 5.0). The inhibition rate of each compound against androgen receptor (AR) was calculated, and the half-inhibitory concentration IC50 of each compound against androgen receptor (AR) was further calculated.

Assay [5] concerns the target T2, BRD4 (D1+D2) protein (Homo sapiens, UniProt O60885).
T2 construct: purchased BPS 31044
The assay can be described thus: HTRF binding to BRD4 (D1+D2) protein. To be noted: BRD4(1,2), 2 h at room temperature, read-out: IC50 (μM), inhibitory activity on BRD4. From the text:
Homogeneous time-resolved fluorescence technique (HTRF) was used to detect the binding effect of compound to BRD4 (D1+D2) protein.
Experimental materials: • BRD4(1,2) (BPS, Cat. No. 31044), • I-CBP 112 (MCE, Cat. No. HY-19541), • (+)-JQ1 (BPS, Cat. No. 27402).
Using homogeneous time-resolved fluorescence method, the detection steps are as follows:
1. According to the layout of the detection plate, the test compound was gradiently diluted on the Echo plate, and the final dilution concentration of DMSO was 0.1%.
2. The compound or DMSO was transferred to the 384-well detection plate with the Echo automatic sampler.
3. Two-fold concentration of protein and peptide mixture was added to the detection plate.
4. Two-fold concentration of the detection mixture was added to the detection plate, and shook for 30 s.
5. Incubating for 2 h at room temperature.
6. The fluorescence signal was read on the Envision multifunctional microplate reader (excitation wavelength at 340 nm; emission wavelength at 615 nm and 665 nm).
1. The experimental data were entered into an Excel file, and equation (1) was used to calculate the inhibition rate:
Inh %=(Max−Signal)/(Max−Min)*100 Equation (1)
2. The obtained data were input into GraphPad software, and equation (2) was used to calculate the IC50 value.
Y=Bottom+(Top−Bottom)/(1+10^((LogIC50−X)*Hill Slope)) Equation (2)
wherein, Y axis is the inhibition rate, while X axis is the compound concentration.
(In general: In TR-FRET formats the signal depends on donor and acceptor labels being close together.)

For the compound `CCN(c1ccc(C#N)c(Cl)c1)c1cc(-c2c(C)nn(C)c2C)ccc1C` [Compound 2], the IC50 in assay [1] is 0.51 µM; in assay [2], 5.2 µM; in assay [3], 0.78 µM; in assay [4], 0.78 µM.
As for `CCN(c1ccc(-n2ccnc2)c(Cl)c1)c1cc(-c2c(C)noc2C)ccc1C` [Compound 30], the IC50 in assay [1] is 0.9 µM; in assay [2] it was more than 10 µM; in assay [3], 2.27 µM.
Consider `CCN(c1ccc(-n2ccnc2)c(Br)c1)c1cc(-c2c(C)noc2C)ccc1C` [Compound 31, N-(3-bromo-4-(1H-imidazol-1-yl)phenyl)-5-(3,5-dimethylisoxazol-4-yl)-N-ethyl-2-methylaniline], for which the IC50 amounted to 0.54 µM in assay [1]; 9.37 µM in assay [2]; 1.35 µM in assay [3]; 6.3 µM in assay [5]; 2.1 µM in assay [4].
For `CCN(c1ccc(C(C)(C)C#N)cc1)c1cc(-c2c(C)noc2C)ccc1C` [Compound 110], the IC50 came out at 0.93 µM in assay [1] and 1.6 µM in assay [4].
Turning to `CCN(c1ccc(Br)cc1)c1cc(-c2c(C)noc2C)ccc1C` [Compound 116], the results for the IC50 in assay [1], in assay [2] and in assay [4] were 0.61 µM, 0.63 µM and 4.9 µM, respectively.
`CCN(c1ccc(-n2ccnn2)cc1)c1cc(-c2c(C)noc2C)ccc1C` [Compound 33]: the IC50 in assay [1] was found to be 0.75 µM; in assay [2], 2.41 µM; in assay [3] it was 0.88 µM.
As for `CCN(c1ccc(F)c(-n2ccnc2)c1)c1cc(-c2c(C)noc2C)ccc1C` [Compound 83], the IC50 came to 5.2 µM in assay [2], 1.27 µM in assay [3], 6.7 µM in assay [5] and 0.83 µM in assay [4].
As to `CCN(c1ccc(-n2ccnc2C)cc1)c1cc(-c2c(C)noc2C)ccc1C` [Compound 27], the IC50 in assay [1] worked out at 0.38 µM; in assay [2], 3.77 µM; in assay [3] it was 0.99 µM; in assay [5], 4.1 µM; in assay [4], 0.89 µM.
Regarding `CCN(c1ccc(-n2cnc(C)c2)cc1)c1cc(-c2c(C)noc2C)ccc1C` [Compound 26], the values for the IC50 in assay [1], in assay [2] and in assay [3] were 1.14 µM, 4.08 µM and 1.16 µM, respectively.
Turning to `CCN(c1ccc(-n2ccnc2)c(C(F)(F)F)c1)c1cc(-c2c(C)noc2C)ccc1C` [Compound 32], the IC50 in assay [1] came out at 1.4 µM; in assay [2], 3.5 µM; in assay [3] it was 0.98 µM.
For `CCN(c1ccc(C#N)c(Cl)c1)c1cc(-c2c(C)noc2C)ccc1C` [Compound 14], the IC50 in assay [1] stood at 0.55 µM; in assay [4], 1.5 µM.
As for `CCN(c1ccc(-c2c(C)noc2C)cc1)c1cc(-c2c(C)noc2C)ccc1C` [Compound 104], the IC50 in assay [4] is 1.3 µM.
Regarding `CCN(c1ccc(C2(C#N)CC2)cc1)c1cc(-c2c(C)noc2C)ccc1C` [Compound 111, 1-(4-((5-(3,5-dimethylisoxazol-4-)-2-methylphenyl)(ethyl)amino)phenyl)cyclopropanecarbonitrile], the IC50 in assay [1] came to 0.14 µM; in assay [2], 0.27 µM; in assay [4] it was 1.6 µM.
For `CCN(c1ccc(-n2ccnc2)c(F)c1)c1cc(-c2c(C)noc2C)ccc1C` [Compound 29], the IC50 in assay [1] stood at 0.49 µM; in assay [2] it was 5.6 µM; in assay [3], 1.22 µM; in assay [4] it was 0.45 µM.
Regarding `CCN(c1ccc(-c2ccnn2C)cc1)c1cc(-c2c(C)noc2C)ccc1C` [Compound 127], the IC50 in assay [4] stood at 3.4 µM.
As to `CCN(c1ccc(-n2ccnn2)c(Br)c1)c1cc(-c2c(C)noc2C)ccc1C` [Compound 45], the IC50 in assay [1] amounted to 0.82 µM; in assay [2], 7.75 µM; in assay [3], 0.75 µM; in assay [5], 1.9 µM; in assay [4], 1.7 µM.
With `CCN(c1ccc(-n2cnnc2)cc1)c1cc(-c2c(C)noc2C)ccc1C` [Compound 34], the results for the IC50 in assay [1], in assay [2] and in assay [3] were 0.95 µM, 2.58 µM and 1 µM, respectively.
